# Source: US20080306007A1, “AGENTS FOR PROPHYLAXIS OR TREATMENT OF NEUROLOGICAL RELATED DISEASES AND CONDITIONS” (Newcastle Innovation Limited, priority 2007, published 2008)
# How the values were obtained:
# [1] = target: T1, dynamin I-endophilin I interaction (Rattus norvegicus, UniProt O35179); experiment: Elution of endophilin I from immunoprecipitated complex by peptide; type: binding; settings: immunoprecipitated complex incubated with peptide
# T1 construct: Syndapin I or dynamin I were immunoprecipitated from nerve terminals; from tissue; host or cells: rat brain crude (P2) synaptosomes
# T1 sequence (O35179 whole entry): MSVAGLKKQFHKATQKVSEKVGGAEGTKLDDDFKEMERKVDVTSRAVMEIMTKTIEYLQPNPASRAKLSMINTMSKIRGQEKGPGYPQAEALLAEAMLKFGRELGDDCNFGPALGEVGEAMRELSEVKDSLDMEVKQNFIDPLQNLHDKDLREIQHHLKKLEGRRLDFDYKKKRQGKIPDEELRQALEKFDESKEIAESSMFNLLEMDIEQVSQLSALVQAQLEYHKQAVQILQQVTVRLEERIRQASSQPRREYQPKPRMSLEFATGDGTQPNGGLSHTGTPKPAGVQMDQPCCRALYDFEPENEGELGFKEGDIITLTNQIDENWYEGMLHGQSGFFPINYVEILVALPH
# Description: (§1) To determine whether the phospho-box sequence might account for syndapin I recruitment to dynamin I, the ability of a DynI769-784AA peptide (FIG. 5a) to disrupt their interaction was tested. Syndapin I or dynamin I were immunoprecipitated from nerve terminals and the individual protein complexes were incubated with DynI769-784AA (SEQ ID No. 8) peptide (see below). Their interaction in both cases was reduced by the peptide, as indicated by the specific release of either binding partner from the bead-bound complex (FIG. 4c). No elution of endophilin I (FIG. 4c) or amphiphysin I (data not shown) was detected, highlighting the specificity of the interaction.
# (§2) Crude (P2) synaptosomes were prepared from rat brain and lysed as described in Example 1.1.3. Synaptosome lysates were incubated with 5 μg of anti-syndapin I or […] pre-bound to protein G-sepharose (Roche) for 3 h at 4° C. Beads were washed with ice-cold PBS, eluted in SDS-PAGE sample buffer and blotted with anti-syndapin I, anti-endophilin I and anti-dynamin I antibodies.
# [2] = target: T2, amphiphysin I (Rattus norvegicus, UniProt O08838); experiment: Elution of amphiphysin I from immunoprecipitated complex by peptide; type: binding; settings: data not shown
# T2 construct: Syndapin I or dynamin I were immunoprecipitated from nerve terminals; from tissue; host or cells: rat brain crude (P2) synaptosomes
# T2 sequence (O08838 1-683): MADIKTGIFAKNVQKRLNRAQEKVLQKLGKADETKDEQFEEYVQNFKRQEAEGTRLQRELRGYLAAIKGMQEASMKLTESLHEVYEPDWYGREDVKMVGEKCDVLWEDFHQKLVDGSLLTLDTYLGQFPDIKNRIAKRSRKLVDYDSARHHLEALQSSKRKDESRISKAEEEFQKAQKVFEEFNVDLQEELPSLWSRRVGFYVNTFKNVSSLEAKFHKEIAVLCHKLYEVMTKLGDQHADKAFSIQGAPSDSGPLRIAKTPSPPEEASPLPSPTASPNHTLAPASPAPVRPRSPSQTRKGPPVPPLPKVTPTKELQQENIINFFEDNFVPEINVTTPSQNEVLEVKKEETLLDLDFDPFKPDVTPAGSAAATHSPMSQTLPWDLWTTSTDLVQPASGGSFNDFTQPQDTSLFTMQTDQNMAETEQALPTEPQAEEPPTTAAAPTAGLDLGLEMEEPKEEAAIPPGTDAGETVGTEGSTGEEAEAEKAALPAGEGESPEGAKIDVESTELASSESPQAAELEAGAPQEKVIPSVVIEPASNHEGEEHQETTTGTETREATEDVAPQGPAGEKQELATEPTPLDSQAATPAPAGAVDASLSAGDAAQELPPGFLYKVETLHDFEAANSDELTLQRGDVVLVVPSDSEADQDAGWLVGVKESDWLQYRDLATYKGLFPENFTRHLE
# Description: as §1, §2
# [3] = system: synaptosomes (SV exocytosis); experiment: KCl-evoked Ca2+-dependent glutamate release assay in synaptosomes; type: cell-based, rat; settings: peptide preincubated 30 min; KCl stimulation
# Description: In all SV recycling studies synaptosomes were prepared from rat cerebral cortex by centrifugation on discontinuous percoll gradients (Dunkley et al. 1986). The glutamate release assay was performed as described before (Cousin and Robinson 2000a). Data is presented as Ca^2+-dependent glutamate release, calculated as the difference between release in plus and minus Ca^2+ solutions. Penetratin peptides (Genemed Synthesis) were preincubated with the synaptosomes for 30 min before stimulation and had no effect on Ca^2+-independent release of glutamate.
# A block in SV turnover cannot be ascribed to an inhibition of SVE until an effect on exocytosis has been excluded. Two independent exocytosis assays were conducted to assess this: endogenous glutamate release and FM2-10 unloading. Neither the DynI769-784AA nor DynI769-784EE peptide had any significant effect on KCl-evoked Ca^2+-dependent glutamate release (DynI769-784AA […]±8.4% of control; DynI769-784EE […]±9.5% of control, FIG. 5c). Both peptides had small effects on FM2-10 unloading evoked by 30 mM KCl (DynI769-784AA −81.1±0.8% of control; DynI769-784EE −82.3±0.6% of control, FIG. 5d). Finally, the extent of SVE inhibition by the peptides was quantified by calculating “retrieval efficiency” which takes into account prior exocytosis; a value of less than one indicating a selective SVE inhibition. […]
# [4] = system: synaptosomes (SV retrieval from the plasma membrane); experiment: FM2-10 SV internalisation assay (purified SVs from synaptosomes); type: cell-based, rat
# Description: Loading of FM2-10 (Molecular Probes) into recycling synaptosomal SVs was measured as previously described. Data is presented as Ca^2+-dependent FM2-10 unloading, which is the difference between release after loading in plus and minus Ca^2+ solutions. Where indicated, synaptosomes were preincubated with penetratin peptide for 30 min prior to stimulation of FM2-10 loading. […] The same assay was used to monitor the effect of penetratin peptide on SV exocytosis. However, in this instance, the synaptosomes were loaded with FM2-10 in plus Ca^2+ Krebs-like solution and, where indicated, were preincubated with penetratin peptide for 30 min prior to stimulation of FM2-10 unloading. Data is presented as Ca^2+-dependent FM2-10 unloading. The SV internalisation assay was performed as previously described.
# If SVE was arrested before SV fission occurred, […]. SVs were purified and their fluorescence values were corrected for dye uptake in the absence of Ca^2+ (Ca^2+-dependent) and normalised to control (n=3, mean ±s.e.m.).
# [5] = system: U2OS cells; experiment: Transferrin (Tfn) endocytosis (RME) in U2OS cells; type: cell-based; settings: 15 min peptide preincubation at various concentrations, Tfn 15 min at 37° C.
# Description: Briefly, non-neuronal U2OS cells were preincubated with vehicle only or each peptide at various concentrations for 15 min. Cells were then incubated with Tfn for 15 min at 37° C., acid washed, fixed and internalized Tfn was detected by fluorescence microscopy. Quantitative analysis of endocytosis in the presence of different concentrations of the peptides is shown as mean fluorescence as a percent of fluorescence in control cells. The results shown in FIG. 11 are representative of 2 independent experiments. Endocytosis in control cells (no peptide) is expressed as 100%.
substance,measurement,setting,value
"DynI769-784AA: Dynamin I phospho-box mimetic peptide (residues 769-784), AA mutant, tagged with penetratin heptapeptide RRMKWKK (RRMKWKKPAGRRAPTSAPTPQRR; listed as Rattus norvegicus)",elution of endophilin I from complex,[1],No elution
same,elution of amphiphysin I from complex,[2],No elution
same,KCl-evoked Ca2+-dependent glutamate release,[3],92.5±8.4 % of control
same,inhibition of FM2-10 accumulation in SVs,[4],approximately 35%
same,FM2-10 accumulation in purified SVs (Ca2+-dependent),"[4]; n=3, mean ± s.e.m.",64.9±5.5 % of control
same,"endocytosis of transferrin (Tfn), RME",[5],without effect
